Experimental data taken from patent US9090601B2, “Thiazole derivatives” (Millennium Pharmaceuticals, Inc., priority 2009, dated 2015).

Target: T1, PI3Kalpha (Homo sapiens, UniProt P42336)
T1 construct: His (N); host or cells: baculovirus expression system (insect cells)
Experiment: PI3K alpha enzyme assay (HTRF)
Assay type: biochemical
Conditions: PI3Kalpha 0.4875 nM, ATP 25 uM, di-C8 PI(4,5)P2 3.5 uM, 30 min room temperature; read-out: IC50 (inhibit PI3Kalpha)
Description: 0.5 uL compounds in DMSO are added to wells of a 384 well microtitre plate (Corning 3575). At room temperature: 10 ul PI3K reaction buffer (50 mM Hepes, 5 mM DTT, 150 mM NaCl, 10 mM beta-glycerophosphate, 10 mM MgCl2, 0.25 mM sodium cholate and 0.001% CHAPS, pH 7.00) containing ATP (25 uM, Promega) is added followed immediately by 10 ul PI3K reaction buffer containing di-C8 PI(4,5)P2 (3.5 uM, CellSignals) and PI3Kalpha (0.4875 nM, Millennium Protein Sciences Group) and the mixture is incubated with shaking at room temperature for 30 minutes. Then 5 ul PI3K stop mix (50 mM Hepes, 5 mM DTT, 150 mM NaCl, 0.01% Tween-20, 15 mM EDTA and 25 nM biotin-PI(3,4,5)P3 (Echelon) is added to quench the reaction followed immediately by addition of 5 ul HTRF detection mix (50 mM Hepes, 5 mM DTT, 150 mM NaCl, 0.01% Tween-20, 40 mM KF, 10 nM GST:GRP-1 PH domain (Millennium Protein Sciences Group), 15 nM Streptavidin-XL (CisBio) and 0.375 nM anti-GST Eu++ antibody (CisBio) at pH 7.00). The plates are then incubated for 1 hour at room temperature with shaking and then read on a BMG PheraStar Plus reader.

T1 sequence (P42336 whole entry): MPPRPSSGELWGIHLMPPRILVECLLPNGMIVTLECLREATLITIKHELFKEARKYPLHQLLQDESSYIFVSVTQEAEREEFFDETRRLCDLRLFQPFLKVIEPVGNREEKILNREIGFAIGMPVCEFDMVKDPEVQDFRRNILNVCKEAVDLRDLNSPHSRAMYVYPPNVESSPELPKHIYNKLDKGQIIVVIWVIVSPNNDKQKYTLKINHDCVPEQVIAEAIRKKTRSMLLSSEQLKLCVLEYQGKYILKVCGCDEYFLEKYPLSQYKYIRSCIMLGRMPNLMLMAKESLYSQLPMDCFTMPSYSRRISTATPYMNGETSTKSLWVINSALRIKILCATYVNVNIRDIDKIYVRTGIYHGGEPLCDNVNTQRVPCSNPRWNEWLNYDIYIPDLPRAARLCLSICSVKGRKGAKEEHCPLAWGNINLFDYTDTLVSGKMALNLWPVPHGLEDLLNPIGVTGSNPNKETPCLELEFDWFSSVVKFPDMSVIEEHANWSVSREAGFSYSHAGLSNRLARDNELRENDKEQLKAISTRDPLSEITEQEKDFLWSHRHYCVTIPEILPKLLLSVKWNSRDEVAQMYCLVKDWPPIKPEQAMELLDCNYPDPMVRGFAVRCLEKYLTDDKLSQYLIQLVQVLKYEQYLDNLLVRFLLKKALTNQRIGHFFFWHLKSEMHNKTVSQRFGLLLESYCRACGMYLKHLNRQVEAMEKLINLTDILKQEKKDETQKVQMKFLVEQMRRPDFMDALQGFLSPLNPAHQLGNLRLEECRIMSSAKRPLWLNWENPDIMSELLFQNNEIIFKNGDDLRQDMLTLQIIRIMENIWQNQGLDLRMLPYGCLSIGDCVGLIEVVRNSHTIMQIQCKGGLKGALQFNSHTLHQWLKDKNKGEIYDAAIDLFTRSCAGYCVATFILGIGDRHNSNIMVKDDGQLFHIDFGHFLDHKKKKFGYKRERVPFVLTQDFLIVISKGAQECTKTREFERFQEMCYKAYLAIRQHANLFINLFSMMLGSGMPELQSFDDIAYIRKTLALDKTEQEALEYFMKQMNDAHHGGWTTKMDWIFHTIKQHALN
T1 sequence (P27986 whole entry partner): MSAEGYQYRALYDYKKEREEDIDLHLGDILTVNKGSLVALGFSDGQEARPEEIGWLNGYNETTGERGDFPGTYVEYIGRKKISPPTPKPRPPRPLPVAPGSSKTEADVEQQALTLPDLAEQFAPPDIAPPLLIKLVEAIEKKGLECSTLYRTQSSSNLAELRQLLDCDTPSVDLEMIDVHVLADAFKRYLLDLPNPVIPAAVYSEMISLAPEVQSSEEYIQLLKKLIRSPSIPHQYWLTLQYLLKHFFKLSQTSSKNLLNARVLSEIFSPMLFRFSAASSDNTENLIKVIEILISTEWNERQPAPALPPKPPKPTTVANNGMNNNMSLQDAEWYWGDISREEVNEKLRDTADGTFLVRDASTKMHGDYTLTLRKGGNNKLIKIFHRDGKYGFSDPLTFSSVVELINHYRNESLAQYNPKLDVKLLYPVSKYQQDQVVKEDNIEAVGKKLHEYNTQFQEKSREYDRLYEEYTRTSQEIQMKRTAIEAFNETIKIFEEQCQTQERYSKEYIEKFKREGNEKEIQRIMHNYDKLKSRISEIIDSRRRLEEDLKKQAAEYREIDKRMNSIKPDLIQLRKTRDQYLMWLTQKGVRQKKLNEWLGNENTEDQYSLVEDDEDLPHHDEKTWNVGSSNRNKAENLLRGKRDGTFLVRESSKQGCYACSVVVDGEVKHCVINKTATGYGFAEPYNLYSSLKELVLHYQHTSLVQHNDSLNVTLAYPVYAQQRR

| Structure (SMILES) | IC50 [µM] |
| --- | --- |
| Cc1nc2cccnn2c1-c1nc(-c2ccccc2)c(-c2nnc[nH]2)s1 [Example 41-B, 2-methyl-3-[4-phenyl-5-(4H-1,2,4-triazol-3-yl)-1,3-thiazol-2-yl]imidazo[1,2-b]pyridazine] | > 1 |
| CC(=O)Nc1cc(-c2nc(-c3cccc(-n4cccn4)c3)c(-c3ncc[nH]3)s2)ccn1 [Example 14-C] | > 1 |
| CC(=O)Nc1cc(-c2nc(-c3ccccc3Cl)c(C(=O)NCCO)s2)ccn1 [Example 48-C, 2-[2-(acetylamino)pyridin-4-yl]-4-(2-chlorophenyl)-N-(2-hydroxyethyl)-1,3-thiazole-5-carboxamide] | > 1 |
| CC(=O)Nc1cc(-c2nc(-c3ccc(F)c(CO)c3)c(-c3ncc[nH]3)s2)ccn1 [Example 47-C] | > 1 |
| CC(=O)Nc1cc(-c2nc(-c3ccccc3Cl)c(-c3ncc[nH]3)s2)c(C)cn1 [Example 30-C] | > 1 |
| CCOc1nc(-c2ccnc(NC(=O)c3ccccc3Cl)c2)sc1-c1nnc[nH]1 [Example 54-B, 2-chloro-N-{4-[4-ethoxy-5-(4H-1,2,4-triazol-3-yl)-1,3-thiazol-2-yl]pyridin-2-yl}benzamide] | > 1 |
| CC(=O)Nc1cc(-c2nc(-c3ccncc3)c(-c3ncc[nH]3)s2)ccn1 [Example 27-C] | > 1 |
| CC(=O)Nc1cc(-c2nc(Br)c(-c3ncc[nH]3)s2)ccn1 [Example 58-C] | > 1 |
| CC(=O)Nc1cc(-c2nc(-c3c(C)cccc3C)c(-c3nnc[nH]3)s2)ccn1 [Example 56-C, N-{4-[4-(2,6-dimethylphenyl)-5-(4H-1,2,4-triazol-3-yl)-1,3-thiazol-2-yl]pyridin-2-yl}acetamide] | > 1 |
| COCCNC(=O)c1sc(-c2ccnc(NC(C)=O)c2)nc1-c1ccccc1Cl [Example 64-C] | > 1 |
| CCOc1nc(-c2ccnc(NC(=O)c3c(F)cccc3F)c2)sc1-c1nnc[nH]1 [Example 71-B, N-{4-[4-ethoxy-5-(4H-1,2,4-triazol-3-yl)-1,3-thiazol-2-yl]pyridin-2-yl}-2,6-difluorobenzamide] | > 1 |
| CC(=O)Nc1cc(-c2nc(-c3ccc(Oc4ccccc4)cc3)c(-c3ncc[nH]3)s2)ccn1 [Example 60-C] | > 1 |

The next lines start with the values.

| IC50 [µM] | Structure (SMILES) |
| --- | --- |
| > 1 | CC(=O)Nc1cc(-c2nc(-c3ccccc3)c(-c3ncc[nH]3)s2)c(C)cn1 [Example 36-C] |
| > 1 | CCOc1nc(-c2ccnc(NC(=O)c3sccc3C)c2)sc1-c1nnc[nH]1 [Example 52-B, N-{4-[4-ethoxy-5-(4H-1,2,4-triazol-3-yl)-1,3-thiazol-2-yl]pyridin-2-yl}-3-methylthiophene-2-carboxamide] |
| > 1 | CC(=O)Nc1cc(-c2nc(-c3ccc(OC(C)C)cc3)c(-c3ncc[nH]3)s2)ccn1 [Example 46-C] |
| > 1 | COc1ccc(-c2nc(-c3ccnc(NC(C)=O)c3)sc2-c2ncc[nH]2)cc1OC [Example 16-C] |
| > 1 | CC(=O)Nc1cc(-c2nc(-c3ccccc3Cl)c(C(=O)NC[C@@H](C)O)s2)ccn1 [Example 4-C] |
| > 1 | CCOc1nc(-c2ccnc(NC(=O)c3ccncc3)c2)sc1-c1nnc[nH]1 [Example 67-B, N-{4-[4-ethoxy-5-(4H-1,2,4-triazol-3-yl)-1,3-thiazol-2-yl]pyridin-2-yl}pyridine-4-carboxamide] |
| > 1 | CCOc1nc(-c2ccnc(NC(=O)c3ccccc3C)c2)sc1-c1nnc[nH]1 [Example 68-B, N-{4-[4-ethoxy-5-(4H-1,2,4-triazol-3-yl)-1,3-thiazol-2-yl]pyridin-2-yl}-2-methylbenzamide] |
| > 1 | CC(=O)Nc1cccc(-c2nc(-c3ccnc(NC(C)=O)c3)sc2-c2ncc[nH]2)c1 [Example 72-C] |
| > 1 | COc1ccc(-c2nc(-c3ccnc(NC(C)=O)c3)sc2-c2ncc[nH]2)cc1 [Example 62-C] |
| > 1 | COc1cnc(NC(C)=O)cc1-c1nc(-c2ccc(Cl)cc2Cl)c(-c2ncc[nH]2)s1 [Example 18-C] |
| > 1 | CC(=O)Nc1cc(-c2nc(-c3ccccc3Cl)c(-c3nnc[nH]3)s2)c(C)cn1 [Example 65-C] |
| > 1 | COc1cccc(OC)c1-c1nc(-c2c(C)nn3ccccc23)sc1-c1nc[nH]n1 [Example 102-B, 3-[4-(2,6-dimethoxyphenyl)-5-(1H-1,2,4-triazol-3-yl)-1,3-thiazol-2-yl]-2-methylpyrazolo[1,5-a]pyridine] |
| > 1 | CCOc1nc(-c2ccnc(NC(=O)c3ccccn3)c2)sc1-c1nnc[nH]1 [Example 49-B, N-{4-[4-ethoxy-5-(4H-1,2,4-triazol-3-yl)-1,3-thiazol-2-yl]pyridin-2-yl}pyridine-2-carboxamide] |
| > 1 | CCOc1nc(-c2ccnc(NC(=O)C3CCCCC3)c2)sc1-c1nnc[nH]1 [Example 50-B, N-{4-[4-ethoxy-5-(4H-1,2,4-triazol-3-yl)-1,3-thiazol-2-yl]pyridin-2-yl}cyclohexanecarboxamide] |
| > 1 | CC(=O)Nc1cc(-c2nc(-c3ccc(-c4nnc(C)o4)cc3)c(-c3ncc[nH]3)s2)ccn1 [Example 8-C] |
| > 1 | CCOc1nc(-c2ccnc(NC(=O)C(C)(C)C)c2)sc1-c1nnc[nH]1 [Example 66-B, N-{4-[4-ethoxy-5-(4H-1,2,4-triazol-3-yl)-1,3-thiazol-2-yl]pyridin-2-yl}-2,2-dimethylpropanamide] |
| > 1 | Cc1nn2c(c1-c1nc(C3CCCCC3)c(-c3nnc[nH]3)s1)CCCC2 [Example 19-B, 3-[4-cyclohexyl-5-(4H-1,2,4-triazol-3-yl)-1,3-thiazol-2-yl]-2-methyl-4,5,6,7-tetrahydropyrazolo[1,5-a]pyridine] |

Target: T2, human mTOR (Homo sapiens, UniProt P42345)
T2 construct: purchased Invitrogen
Experiment: Human mTOR enzyme assay (Z'-lyte peptide FRET)
Assay type: biochemical
Conditions: mTOR enzyme activity, compound at 1.0 μm, 10 μM ATP
Description: mTOR reaction buffer (50 mM HEPES, pH 7.5, 5 mM MgCl2, 5 mM MnCl2, 1 mM EGTA, 1 mM DTT, 0.01% BRIJ-35, 0.01% NaN3) containing human mTOR (Invitrogen), 10 μM ATP and 2 μM Z′-lyte 11Ser/Thr peptide (Invitrogen) is added to the well and the mixture is reacted at room temperature for 1 hr.
Development Buffer containing Development Reagent B (for Z′-lyte peptide, Invitrogen) was added, and the mixture is reacted at room temperature for 30 min. The fluorescence at 520 nm and fluorescence at 445 nm are measured with excitation at 400 nm using SpectraMax M5e (Molecular Device). The ratio of the obtained 445 nm fluorescence value/520 nm fluorescence value is calculated, and changes in the fluorescence resonance energy transfer (FRET) of Z′-lyte peptide are detected as the enzyme activity.

T2 sequence (P42345 1360-2549 limits assumed): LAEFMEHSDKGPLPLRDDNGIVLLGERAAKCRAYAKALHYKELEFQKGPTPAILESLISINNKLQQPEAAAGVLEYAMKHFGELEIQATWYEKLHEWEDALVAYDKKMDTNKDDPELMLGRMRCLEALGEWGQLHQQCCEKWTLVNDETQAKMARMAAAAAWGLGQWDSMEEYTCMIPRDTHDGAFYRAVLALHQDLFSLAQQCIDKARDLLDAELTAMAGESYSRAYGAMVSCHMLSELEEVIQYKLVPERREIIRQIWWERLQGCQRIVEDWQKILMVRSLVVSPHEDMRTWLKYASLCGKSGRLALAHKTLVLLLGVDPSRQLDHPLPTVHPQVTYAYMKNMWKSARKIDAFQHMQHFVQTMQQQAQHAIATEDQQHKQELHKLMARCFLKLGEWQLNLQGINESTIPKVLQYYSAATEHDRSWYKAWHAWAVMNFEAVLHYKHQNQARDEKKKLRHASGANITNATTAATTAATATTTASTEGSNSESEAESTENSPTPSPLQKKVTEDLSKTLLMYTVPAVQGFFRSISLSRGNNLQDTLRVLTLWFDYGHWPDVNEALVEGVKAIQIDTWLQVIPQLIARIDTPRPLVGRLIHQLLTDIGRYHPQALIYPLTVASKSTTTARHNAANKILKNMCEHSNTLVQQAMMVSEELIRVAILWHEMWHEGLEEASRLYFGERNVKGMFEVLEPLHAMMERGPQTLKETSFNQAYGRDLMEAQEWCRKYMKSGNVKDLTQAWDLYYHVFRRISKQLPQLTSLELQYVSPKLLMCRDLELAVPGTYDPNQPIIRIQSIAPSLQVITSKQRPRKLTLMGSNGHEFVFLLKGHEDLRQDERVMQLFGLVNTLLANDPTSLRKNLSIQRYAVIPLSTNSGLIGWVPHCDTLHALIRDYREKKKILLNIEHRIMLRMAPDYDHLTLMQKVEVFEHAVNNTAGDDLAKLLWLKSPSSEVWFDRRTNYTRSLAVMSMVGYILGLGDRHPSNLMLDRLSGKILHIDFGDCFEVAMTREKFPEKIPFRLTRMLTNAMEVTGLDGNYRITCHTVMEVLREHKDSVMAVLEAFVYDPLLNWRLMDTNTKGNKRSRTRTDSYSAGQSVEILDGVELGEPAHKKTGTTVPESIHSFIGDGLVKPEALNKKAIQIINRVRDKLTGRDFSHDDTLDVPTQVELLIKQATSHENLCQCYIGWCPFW

| Inhibitory rate at 1.0 μm (%) | Structure (SMILES) |
| --- | --- |
| 93 | Cc1nn2ccc(OCCN3CCOCC3)cc2c1-c1nc(-c2ccccc2)c(-c2nnc[nH]2)s1 [Example 31-B, 2-methyl-5-(2-morpholin-4-ylethoxy)-3-[4-phenyl-5-(4H-1,2,4-triazol-3-yl)-1,3-thiazol-2-yl]pyrazolo[1,5-a]pyridine di-p-toluenesulfonate] |
| 91 | Cc1nn2ccc(OCCO)cc2c1-c1nc(-c2ccccc2)c(-c2nnc[nH]2)s1 [Example 33-B, 2-({2-methyl-3-[4-phenyl-5-(4H-1,2,4-triazol-3-yl)-1,3-thiazol-2-yl]pyrazolo[1,5-a]pyridin-5-yl}oxy)ethanol] |

Target: T3, hPI3Kα (p110alpha catalytic subunit and human p85alpha regulatory subunit complex) (Homo sapiens, UniProt P42336)
T3 construct: made in house; host or cells: Sf21 insect cells (baculovirus, Bac-to-Bac)
Experiment: Human PI3Kα enzyme assay (Phospholipid FlashPlate, γ-[33P] ATP)
Assay type: biochemical
Conditions: PI3Kα enzyme activity, compound at 1.0 μm, 500 nM ATP
Description: hPIK3CA; p110alpha catalytic subunit (GenBank ACCESSION# NM_006218) and hPIK3R1; p85alpha regulatory subunit (GenBank ACCESSION# NM_181523) are cloned from human cDNA library (Clonetec).
Human p110alpha catalytic subunit gene and human p85alpha regulatory subunit gene are respectively inserted into pFASTBacHT (Invitrogen), and each gene was introduced into a baculovirus vector using a Bac-to-Bac system (Invitrogen). Both viruses are injected to insect cultured cells Sf21 to allow coexpression of proteins. p110alpha catalytic subunit and human p85alpha regulatory subunit complex (hPI3Kα) are purified from the cell extract using a Ni chelate column.
L-alpha-Phosphatidyl-D-myo-inositol 4,5-Diphosphate (diC16) [PI(4,5)P2, Wako Pure Chemical Industries, Ltd.] is suspended in Phospholipid FlashPlate Coating Buffer (PerkinElmer) and applied onto Phospholipid FlashPlate PLUS. PI3K reaction buffer (50 mM Tris-HCl, pH 7.4, 5 mM MgCl2, 1 mM DTT, 0.005% BSA) containing hPI3Kα, γ-[^33P] ATP (PerkinElmer) and cold 500 nM ATP is added to the wells on this plate and the mixture is reacted at room temperature for 1 hr. 50 mM EDTA solution is added to quench the reaction, and the wells are washed with PBS. The radioactivity remaining in the well is measured as enzyme activity by TopCount (PerkinElmer).

T3 sequence (P42336 whole entry): as the sequence (P42336 whole entry) above
T3 sequence (P27986 whole entry partner): as the sequence (P27986 whole entry partner) above

| Inhibitory rate at 1.0 μm (%) | Structure (SMILES) |
| --- | --- |
| 100 | C=CCOc1nc(-c2c(C)nn3ccccc23)sc1-c1nnc[nH]1 [Example 27-B, 2-methyl-3-[4-(prop-2-en-1-yloxy)-5-(4H-1,2,4-triazol-3-yl)-1,3-thiazol-2-yl]pyrazolo[1,5-a]pyridine] |
| 100 | Cc1nn2ccc(OCCN3CCCCC3)cc2c1-c1nc(-c2ccccc2)c(-c2nnc[nH]2)s1 [Example 32-B, 2-methyl-3-[4-phenyl-5-(4H-1,2,4-triazol-3-yl)-1,3-thiazol-2-yl]-5-(2-piperidin-1-ylethoxy)pyrazolo[1,5-a]pyridine di-p-toluenesulfonate] |

| Structure (SMILES) | Inhibitory rate at 1.0 μm (%) |
| --- | --- |
| Cc1nn2ccsc2c1-c1nc(-c2ccccc2)c(-c2nnc[nH]2)s1 [Example 35-B, 6-methyl-7-[4-phenyl-5-(4H-1,2,4-triazol-3-yl)-1,3-thiazol-2-yl]pyrazolo[5,1-b][1,3]thiazole acetate] | 101 |
